Values quoted from earlier work in patent US5840324A, “Antiparasitic compositions” (Commonwealth Scientific and Industrial Organisation, priority 1993, dated 1998).

Assays:
[1] = for time of maximum concentration in the bloodstream: after oral administration; for absorption: conventional dosing; for activity of metabolic products: degradation products of absorbed compound

Row | SMILES | absorption of ABZ in the abomasum | time of maximum concentration in the bloodstream [1] [h] | absorption [1] | activity of metabolic products [1] | excretion of absorbed drug ([1]; in vivo) | metabolism ([1]; in vivo) | retention in the bloodstream at efficacious levels ([1]; against blood-consuming parasites) | dose lost in faeces ([1]; in vivo) | association with plasma albumin (plasma albumin)
1 | CCCSc1ccc2nc(NC(=O)OC)[nH]c2c1 [ABZ, [5-(propylthio)-1H-benzimidazol-2-yl]carbamic acid methyl ester] | virtually no absorption |  |  |  |  |  |  |  | 
2 | Cc1ccsc1/C=C/C1=NCCCN1C [morantel, (E)-1,4,5,6-tetrahydro-1-methyl-2-[2-(3-methyl-2-thienyl)vinyl]-pyrimidine] |  | 2 to 4 | rapidly absorbed from the rumen | completely inactive | rapidly excreted, predominantly in urine | degraded at a rate consistent with first-pass metabolism |  |  | 
3 | Cc1cc(C(C#N)c2ccc(Cl)cc2)c(Cl)cc1NC(=O)c1cc(I)cc(I)c1O (stereo not drawn) [closantel, 5'-chloro-4'-(4-chloro-α-cyanobenzyl)-3,5-diiodosalicyl-o-toluidide] |  |  | slowly absorbed |  |  |  | 3-4 weeks | about 50% | very strongly associate with plasma albumin
4 | Cl.c1ccc([C@H]2CN3CCSC3=N2)cc1 [Levamisole, (-)-(S)-2,3,5,6-tetrahydro-6-phenylimidazo[2,1-b]thiazole hydrochloride] |  | 2 to 4 | rapidly absorbed from the rumen |  | rapidly excreted, predominantly in urine | rapidly metabolised |  |  | 
5 | CN1CCCN=C1/C=C/c1cccs1 [pyrantel, 1,4,5,6-tetrahydro-1-methyl-2-[(E)-2-(2-thienyl)-vinyl]-pyrimidine-4,4'-methylenebis-(3-hydroxy-2-naphthoate)] |  | 2 to 4 | rapidly absorbed from the rumen | completely inactive | rapidly excreted, predominantly in urine | degraded at a rate consistent with first-pass metabolism |  |  | 
